{"source": "paper PMC8471380", "about": "(Molecules, 2021)", "key": {"[1]": {"biological_target": "T1, MK-801-binding (intrachannel) site of NMDA receptor (Rattus norvegicus, UniProt P35439)", "T1 construct": "from tissue; host or cells: rat hippocampus membranes", "experiment": "Radioligand binding assay, [3H]MK-801 displacement", "method": "(§1) The effect of the test compounds on radioligand binding to NMDA receptors was evaluated by a modified method, as previously reported [83]. The following two radioligands were used: [^3H] […] A hippocampal membrane preparation for the radioligand binding assay was made as described previously [86, 87]. The obtained membrane pellet was resuspended in a working buffer (5 mM HEPES/4.5 mM Tris, pH 7.6 at 4 °C) in a ratio of 1:5 and stored in liquid nitrogen. The reaction mixture (the final volume was 0.5 mL) contained the working buffer (200 μL), a 50 nM radioligand solution (50 μL) and the membrane suspension (250 μL). The nonspecific binding was evaluated in the presence of 1 mM of the unlabeled ligand (50 μL).\n(§2) For the binding assay, the reaction mixture was incubated at room temperature for 2 h. After the incubation, the samples were filtered through GF/B glass fiber filters (Whatman), washed with the working buffer, dried and transferred to scintillation vials. Then the scintillation fluid (5 mL), which is composed of diphenyloxazole (PPO) (4 g) and bis(5-phenyl-2-oxazolyl)benzene (POPOP) (0.2 g) in toluene (1 L) were added to the vials.\n(§3) The effect of the test compounds on the binding of [^3H] […] The values of Ki were calculated according to a previously described method [88]."}, "equine serum BChE": {"biological_target": "T2, equine serum BChE (Equus caballus, UniProt P81908)", "T2 construct": "equine serum BChE; purchased Sigma; host or cells: equine serum", "T2 sequence (P81908 whole entry)": "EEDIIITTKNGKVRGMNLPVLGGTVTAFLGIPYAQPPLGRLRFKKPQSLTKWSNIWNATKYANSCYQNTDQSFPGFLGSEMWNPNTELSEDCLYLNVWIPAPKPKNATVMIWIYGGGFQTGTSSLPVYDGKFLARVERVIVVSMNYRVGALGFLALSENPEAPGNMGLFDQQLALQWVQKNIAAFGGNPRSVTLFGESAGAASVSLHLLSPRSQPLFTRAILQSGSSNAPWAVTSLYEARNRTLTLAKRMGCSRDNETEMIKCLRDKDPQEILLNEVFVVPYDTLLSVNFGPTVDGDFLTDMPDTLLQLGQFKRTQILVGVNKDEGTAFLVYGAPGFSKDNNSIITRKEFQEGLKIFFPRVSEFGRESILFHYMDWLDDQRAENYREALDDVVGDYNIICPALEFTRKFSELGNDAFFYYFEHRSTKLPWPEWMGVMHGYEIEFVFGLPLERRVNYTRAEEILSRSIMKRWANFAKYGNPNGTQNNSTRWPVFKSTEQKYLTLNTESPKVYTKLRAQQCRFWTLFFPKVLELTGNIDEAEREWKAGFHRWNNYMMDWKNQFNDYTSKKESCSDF", "experiment": "biochemical", "conditions": "5 min incubation; mean ± SEM, n = 3", "method": "(§4) Reagents blanks consisted of reaction mixtures without substrates. […] Final enzyme and substrate concentrations were 0.02 unit/mL and 1 mM, respectively. Assays were carried out with a blank containing all constituents except porcine CES to assess non-enzymatic hydrolysis. The measurements were performed on a FLUOstar OPTIMA multifunctional microplate reader (BMG LABTECH, Ortenberg, Germany). The compounds were dissolved in DMSO. The incubation mixture contained 2% (v/v) of the solvent. […] The sample of the appropriate enzyme was incubated with the test compound for 5 min, and then the residual enzymatic activity was determined. Each experiment was performed in triplicate. […] Each experiment was performed in triplicate. The IC50 values were calculated with Origin 6.1 software."}, "[2]": {"test_system": "tubulin and microtubule-associated proteins (Tb+MAP)", "experiment": "GTP-dependent Tb+MAP polymerization", "format": "biochemical, mouse", "conditions": "100 µM compound; 0.1 mM GTP, 37 °C", "from_the_text": "A crude fraction of tubulin and microtubule-associated proteins (Tb+MAP) was isolated from mouse brain tissue by a polymerization–depolymerization method. The procedure of mouse euthanasia using cervical dislocation for Tb+MAP preparation is in compliance with the Guidelines for Animal Experiments, which were approved by the local bioethics committee of the IPAC RAS. The freshly dissected brain was immediately placed on ice, cleared of meninges and surface blood vessels, and washed with cold buffer A (50 mM Tris-HCl, pH 6.9 at 4 °C, 2 mM EGTA). The extracted brain tissue was homogenized under ice cooling in the same buffer using a Potter S homogenizer (Sartorius). The resulting homogenate was centrifuged at 10,000× g for 30 min on an Avanti 25 centrifuge (Beckman) using a JA-14 rotor for the precipitation of non-ruptured cells. The precipitate was discarded, and the supernatant was again centrifuged at 100,000× g for 60 min at 4 °C on an Optima MAX XP centrifuge (Beckman) using a MLA-50 rotor. The precipitate was again discarded. The protein concentration in the supernatant was determined by the Bradford assay using the Bio-Rad Protein Assay kit (Bio-Rad, Hercules, CA, USA) according to manufacturer’s instructions. The resulting supernatant was a cytosolic fraction enriched in microtubular proteins (Tb and MAP).\nThe Tb+MAP preparation was centrifuged at 5000× g for 10 min at 4 °C immediately before polymerization in order to remove denatured and aggregated protein molecules by precipitation. The Tb+MAP polymerization was performed at 37 °C in buffer A in the presence of 0.1 mM GTP after addition of 100 µM of test compound or the same volume of vehicle (DMSO). The protein concentration in the sample was 0.2 mg/mL. The polymerization kinetics was monitored on a Victor 3 or EnVision microplate reader (Perkin Elmer, USA) at 355 nm and the stabilized rate of polymerization after the first wave was measured (dA355/dt)."}, "[3]": {"biological_target": "T3, ifenprodil-binding site of NMDA receptor (NR2B subunit) (Rattus norvegicus, UniProt P35439+Q00960)", "T3 construct": "from tissue; host or cells: rat hippocampus membranes", "T3 sequence (Q00960 27-1482, other chains not shown)": "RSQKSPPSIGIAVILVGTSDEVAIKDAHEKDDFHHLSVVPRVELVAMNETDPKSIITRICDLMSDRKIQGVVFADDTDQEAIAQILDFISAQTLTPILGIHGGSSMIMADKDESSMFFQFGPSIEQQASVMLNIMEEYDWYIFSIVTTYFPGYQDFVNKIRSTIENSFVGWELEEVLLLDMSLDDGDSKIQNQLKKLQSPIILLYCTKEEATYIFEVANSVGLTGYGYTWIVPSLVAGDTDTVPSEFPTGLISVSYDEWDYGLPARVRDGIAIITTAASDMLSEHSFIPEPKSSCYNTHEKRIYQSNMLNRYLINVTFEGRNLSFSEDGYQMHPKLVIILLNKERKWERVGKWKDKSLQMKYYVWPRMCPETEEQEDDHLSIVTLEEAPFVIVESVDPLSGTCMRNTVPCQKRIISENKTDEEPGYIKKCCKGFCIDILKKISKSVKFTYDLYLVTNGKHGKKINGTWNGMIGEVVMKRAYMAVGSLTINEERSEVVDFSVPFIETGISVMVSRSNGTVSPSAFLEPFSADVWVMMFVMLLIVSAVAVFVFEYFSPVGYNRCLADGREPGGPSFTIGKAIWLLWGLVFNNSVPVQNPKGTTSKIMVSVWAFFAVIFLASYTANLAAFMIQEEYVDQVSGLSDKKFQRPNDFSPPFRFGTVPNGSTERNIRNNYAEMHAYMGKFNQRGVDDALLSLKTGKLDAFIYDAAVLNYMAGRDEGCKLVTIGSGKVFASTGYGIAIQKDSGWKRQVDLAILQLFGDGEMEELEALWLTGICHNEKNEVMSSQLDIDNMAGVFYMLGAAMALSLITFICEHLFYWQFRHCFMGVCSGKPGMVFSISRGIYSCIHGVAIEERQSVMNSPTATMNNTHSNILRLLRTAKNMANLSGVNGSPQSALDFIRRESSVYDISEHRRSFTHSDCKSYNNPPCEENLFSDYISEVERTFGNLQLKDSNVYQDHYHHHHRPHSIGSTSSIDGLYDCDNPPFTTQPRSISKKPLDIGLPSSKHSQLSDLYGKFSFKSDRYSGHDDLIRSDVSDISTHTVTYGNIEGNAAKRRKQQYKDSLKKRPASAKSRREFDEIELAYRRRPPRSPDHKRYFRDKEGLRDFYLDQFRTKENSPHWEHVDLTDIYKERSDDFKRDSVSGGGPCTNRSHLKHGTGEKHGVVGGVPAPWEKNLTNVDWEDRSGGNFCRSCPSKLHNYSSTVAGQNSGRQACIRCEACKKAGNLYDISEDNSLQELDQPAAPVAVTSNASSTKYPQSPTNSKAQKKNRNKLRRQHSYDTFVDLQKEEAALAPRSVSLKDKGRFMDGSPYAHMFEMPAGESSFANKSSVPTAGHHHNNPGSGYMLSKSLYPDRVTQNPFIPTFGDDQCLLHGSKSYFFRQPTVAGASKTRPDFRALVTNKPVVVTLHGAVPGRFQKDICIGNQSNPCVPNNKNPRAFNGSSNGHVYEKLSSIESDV", "experiment": "Radioligand binding assay, [3H]ifenprodil displacement", "method": "as §1, §2, §3"}, "porcine liver CES": {"biological_target": "T4, porcine liver CES (Sus scrofa, UniProt Q29550)", "T4 sequence (Q29550 19-566)": "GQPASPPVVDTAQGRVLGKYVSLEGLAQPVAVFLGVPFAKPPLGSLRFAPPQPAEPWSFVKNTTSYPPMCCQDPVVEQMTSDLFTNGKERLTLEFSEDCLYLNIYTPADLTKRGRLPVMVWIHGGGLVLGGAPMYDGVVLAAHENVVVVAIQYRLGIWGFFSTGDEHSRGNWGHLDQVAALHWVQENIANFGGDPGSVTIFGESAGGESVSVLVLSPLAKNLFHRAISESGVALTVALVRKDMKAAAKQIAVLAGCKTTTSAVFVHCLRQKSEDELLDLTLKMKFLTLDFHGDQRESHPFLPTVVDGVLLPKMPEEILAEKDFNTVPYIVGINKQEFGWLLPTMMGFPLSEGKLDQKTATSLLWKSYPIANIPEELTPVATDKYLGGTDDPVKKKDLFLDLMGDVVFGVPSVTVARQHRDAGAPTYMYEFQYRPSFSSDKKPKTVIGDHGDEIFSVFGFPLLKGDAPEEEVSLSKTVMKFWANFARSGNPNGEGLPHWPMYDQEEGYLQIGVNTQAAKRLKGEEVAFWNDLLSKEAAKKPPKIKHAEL", "experiment": "CES inhibition, 4-nitrophenyl acetate hydrolysis", "format": "biochemical", "conditions": "read-out: % of inhibition of CES with 20 µM concentration of the compound", "method": "as §4"}, "PAS of EeAChE": {"biological_target": "T5, PAS of EeAChE (Electrophorus electricus, UniProt O42275)", "T5 construct": "AChE from Electrophorus electricus (EeAChE, type VI-S, lyophilized powder); purchased Sigma-Aldrich type VI-S; host or cells: Electrophorus electricus tissue", "T5 sequence (O42275 24-633)": "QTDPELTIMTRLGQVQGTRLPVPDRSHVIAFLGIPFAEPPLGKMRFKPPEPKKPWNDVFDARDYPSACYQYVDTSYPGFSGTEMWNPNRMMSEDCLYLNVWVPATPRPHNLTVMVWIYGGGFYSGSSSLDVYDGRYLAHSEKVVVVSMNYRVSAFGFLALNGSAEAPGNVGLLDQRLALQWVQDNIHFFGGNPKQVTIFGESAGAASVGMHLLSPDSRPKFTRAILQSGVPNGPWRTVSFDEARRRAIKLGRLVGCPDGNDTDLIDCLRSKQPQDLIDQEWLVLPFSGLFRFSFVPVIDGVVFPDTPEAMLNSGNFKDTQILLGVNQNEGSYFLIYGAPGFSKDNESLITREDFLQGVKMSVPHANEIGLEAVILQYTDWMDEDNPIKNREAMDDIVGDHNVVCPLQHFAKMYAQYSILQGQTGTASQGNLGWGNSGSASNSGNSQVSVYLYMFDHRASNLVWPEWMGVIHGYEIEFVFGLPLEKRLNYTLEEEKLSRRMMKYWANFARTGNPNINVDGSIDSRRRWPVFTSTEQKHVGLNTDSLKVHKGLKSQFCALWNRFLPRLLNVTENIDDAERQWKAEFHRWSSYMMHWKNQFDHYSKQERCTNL", "format": "binding", "conditions": "20 µM compound; 7 µM EeAChE, 8 µM propidium iodide; mean ± SEM, n = 3", "method": "The compounds were evaluated as potential inhibitors of proaggregation activity of AChE by measuring the displacement of propidium iodide from the PAS of the enzyme [53] using a fluorescence method [28]. AChE from Electrophorus electricus (EeAChE, type VI-S, lyophilized powder, Sigma-Aldrich, St. Louis, MO, USA) was used for consistency with our previous studies [8, 13, 63, 74]. The fluorescence intensity of propidium iodide bound to AChE increases several-fold. A decrease in the fluorescence intensity in the presence of the test compounds is indicative of their ability to bind to the AChE PAS and, correspondingly, to inhibit β-amyloid aggregation.\nEeAChE (7 µM) was incubated with 20 µM of the test compound in 1 mM Tris-HCl buffer, pH 8.0, at 25 °C for 15 min. Then a solution of propidium iodide was added (final concentration 8 µM), the mixture was incubated for 15 min, and the fluorescence spectrum was recorded (excitation at 530 nm and emission at 600 nm). […] The blank contained propidium iodide at the same concentration in 1 mM Tris-HCl buffer, pH 8.0 at 25 °C. The measurements were performed in triplicate on a FLUOstar OPTIMA multifunctional microplate reader.\nThe degree of displacement of propidium iodide from the PAS of AChE (% displacement) was calculated by the equation:% displacement = 100 − (IFAChE + Propidium + inhibitor/IFAChE + Propidium) × 100, where IFAChE + Propidium is the fluorescence intensity of propidium iodide bound to EeAChE in the absence of the test compound (taken as 100%), and IFAChE + Propidium + inhibitor is the fluorescence intensity of propidium iodide bound to EeAChE in the presence of the test compound."}, "[4]": {"test_system": "isolated rat liver mitochondria", "experiment": "Ca2+-induced mitochondrial swelling (MPT pore opening)", "format": "biochemical", "conditions": "30 µM compound; 12.5 µM Ca2+; 10 mM glutamate, 2 mM malate, 10 mM succinate; percentage relative to the reference compound", "experimental": "Experiments were performed using outbred male rats weighing 200–220 g. The animals were housed under standard vivarium conditions in a normal day/night cycle and had ad libitum access to water and food. The procedure of rat euthanasia using carbon dioxide (CO2) inhalation for mitochondria preparation is in compliance with the Guidelines for Animal Experiments, which were approved by the local bioethics committee of the IPAC RAS.\nRat liver mitochondria were isolated by conventional differential centrifugation. Membrane potential of rat liver mitochondria was measured using the potential-sensitive fluorescent probe Safranine A on a Victor 3 multilabel plate reader (Perkin Elmer, Waltham, MA, USA). The fluorescence was recorded at λex = 485 nm and λem = 590 nm. Mitochondrial swelling was measured by spectrophotometry in 96-well clear bottom plates on a Victor 3 microplate reader (Perkin Elmer, Waltham, MA, USA) at 620 nm; CaCl2 was added to induce mitochondrial swelling (MPT opening)."}, "human erythrocyte AChE": {"biological_target": "T6, human erythrocyte AChE (Homo sapiens, UniProt P22303)", "T6 construct": "commercial human erythrocyte AChE; purchased Sigma; host or cells: human erythrocytes", "T6 sequence (P22303 32-617 isoform P22303-2 limits assumed)": "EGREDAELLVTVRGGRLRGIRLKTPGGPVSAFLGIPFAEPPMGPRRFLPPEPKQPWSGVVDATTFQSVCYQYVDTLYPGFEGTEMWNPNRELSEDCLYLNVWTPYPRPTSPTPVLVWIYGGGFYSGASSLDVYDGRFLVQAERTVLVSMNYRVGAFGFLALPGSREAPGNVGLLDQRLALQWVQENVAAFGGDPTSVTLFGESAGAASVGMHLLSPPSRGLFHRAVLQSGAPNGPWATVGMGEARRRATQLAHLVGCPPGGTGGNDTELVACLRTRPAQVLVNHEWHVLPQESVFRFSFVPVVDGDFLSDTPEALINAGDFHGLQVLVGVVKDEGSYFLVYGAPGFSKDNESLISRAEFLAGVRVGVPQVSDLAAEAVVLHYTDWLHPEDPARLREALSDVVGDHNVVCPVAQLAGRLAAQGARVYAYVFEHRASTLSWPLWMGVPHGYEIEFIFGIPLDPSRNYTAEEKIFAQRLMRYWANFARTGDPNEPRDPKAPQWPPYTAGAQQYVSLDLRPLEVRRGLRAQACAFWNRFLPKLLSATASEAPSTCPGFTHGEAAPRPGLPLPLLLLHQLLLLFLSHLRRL", "experiment": "biochemical", "conditions": "mean ± SEM, n = 3; for inhibition at 20 µM: read-out: % of inhibition of AChE with 20 µM concentration of the compound, 20 µM compound; for IC50: 5 min incubation"}}, "data": [{"smiles": "CN1CCc2c(c3ccccc3n2CCNC23CC4CC(C)(CC(C)(C4)C2)C3)C1.Cl.Cl", "note": "[Compound 4a, 3,5-Dimethyl-N-(2-(2-methyl-3,4-dihydro-1H-pyrido[4,3-b]indol-5(2H)-yl)ethyl)-adamantane-1-amine dihydrochloride]", "values": [{"measurement": "Ki", "setting": "[1]", "value": "1.9 ± 0.2", "unit": "µM"}, {"measurement": "IC50", "setting": "equine serum BChE", "value": "0.666 ± 0.037", "unit": "µM"}, {"measurement": "Rate of Tb+MAP Polymerization (dA355/dt)", "setting": "[2]", "value": "126 ± 9", "unit": "%"}, {"measurement": "Ki", "setting": "[3]", "value": "1.7 ± 0.2", "unit": "µM"}, {"measurement": "inhibition at 20 µM", "setting": "porcine liver CES", "value": "15.6 ± 0.3", "unit": "%"}, {"measurement": "% of Displacement of Propidium Iodide from the PAS of EeAChE", "setting": "PAS of EeAChE", "value": "12.5 ± 1.1", "unit": "%"}, {"measurement": "Rate of Ca2+-Induced Mitochondrial Swelling (dA620/dt)", "setting": "[4]", "value": "33 ± 4", "unit": "%"}, {"measurement": "inhibition at 20 µM", "setting": "human erythrocyte AChE", "value": "19.5 ± 0.3", "unit": "%"}]}, {"smiles": "Cc1ccc2c(c1)c1c(n2CCNC23CC4CC(CC(C4)C2)C3)CCN(C)C1.Cl.Cl", "note": "[Compound 4e, N-(2-(2,8-Dimethyl-3,4-dihydro-1H-pyrido[4,3-b]indol-5(2H)-yl)ethyl)adamantane-1-amine dihydrochloride]", "values": [{"measurement": "Ki", "setting": "[1]", "value": "10.3 ± 1.6", "unit": "µM"}, {"measurement": "IC50", "setting": "equine serum BChE", "value": "9.05 ± 0.8", "unit": "µM"}, {"measurement": "Rate of Tb+MAP Polymerization (dA355/dt)", "setting": "[2]", "value": "239 ± 21", "unit": "%"}, {"measurement": "Ki", "setting": "[3]", "value": "8.2 ± 0.9", "unit": "µM"}, {"measurement": "inhibition at 20 µM", "setting": "porcine liver CES", "value": "2.5 ± 0.5", "unit": "%"}, {"measurement": "% of Displacement of Propidium Iodide from the PAS of EeAChE", "setting": "PAS of EeAChE", "value": "15.1 ± 1.2", "unit": "%"}, {"measurement": "Rate of Ca2+-Induced Mitochondrial Swelling (dA620/dt)", "setting": "[4]", "value": "42 ± 9", "unit": "%"}, {"measurement": "IC50", "setting": "human erythrocyte AChE", "value": "63.3 ± 3.3", "unit": "µM"}]}, {"smiles": "CN1CCc2c(c3cc(F)ccc3n2CC(=O)NC23CC4CC(CC(C4)C2)C3)C1.Cl", "note": "[Compound 8f, N-(Adamantan-1-yl)-2-(8-fluoro-2-methyl-3,4-dihydro-1H-pyrido[4,3-b]indol-5(2H)-yl)acetamide hydrochloride]", "values": [{"measurement": "Ki", "setting": "[1]", "value": "47.3 ± 4.7", "unit": "µM"}, {"measurement": "IC50", "setting": "equine serum BChE", "value": "17.1 ± 1.3", "unit": "µM"}, {"measurement": "Rate of Tb+MAP Polymerization (dA355/dt)", "setting": "[2]", "value": "154 ± 14", "unit": "%"}, {"measurement": "Ki", "setting": "[3]", "value": "73.8 ± 7", "unit": "µM"}, {"measurement": "inhibition at 20 µM", "setting": "porcine liver CES", "value": "6.2 ± 0.6", "unit": "%"}, {"measurement": "Rate of Ca2+-Induced Mitochondrial Swelling (dA620/dt)", "setting": "[4]", "value": "61 ± 24", "unit": "%"}, {"measurement": "inhibition at 20 µM", "setting": "human erythrocyte AChE", "value": "22.1 ± 1.8", "unit": "%"}]}, {"smiles": "Cc1ccc2c(c1)c1c(n2CC(=O)NC23CC4CC(C)(CC(C)(C4)C2)C3)CCN(C)C1.Cl", "note": "[Compound 8b, 2-(2,8-Dimethyl-3,4-dihydro-1H-pyrido[4,3-b]indol-5(2H)-yl)-N-(3,5-dimethyladamantan-1-yl)acetamide hydrochloride]", "values": [{"measurement": "Ki", "setting": "[1]", "value": "55.1 ± 5.1", "unit": "µM"}, {"measurement": "IC50", "setting": "equine serum BChE", "value": "33.7 ± 3.5", "unit": "µM"}, {"measurement": "Rate of Tb+MAP Polymerization (dA355/dt)", "setting": "[2]", "value": "314 ± 46", "unit": "%"}, {"measurement": "Ki", "setting": "[3]", "value": "89.7 ± 8.7", "unit": "µM"}, {"measurement": "inhibition at 20 µM", "setting": "porcine liver CES", "value": "6.4 ± 0.5", "unit": "%"}, {"measurement": "% of Displacement of Propidium Iodide from the PAS of EeAChE", "setting": "PAS of EeAChE", "value": "2.8 ± 0.2", "unit": "%"}, {"measurement": "Rate of Ca2+-Induced Mitochondrial Swelling (dA620/dt)", "setting": "[4]", "value": "87 ± 33", "unit": "%"}, {"measurement": "inhibition at 20 µM", "setting": "human erythrocyte AChE", "value": "17.7 ± 1.4", "unit": "%"}]}, {"smiles": "Cc1ccc2c(c1)c1c(n2CC(=O)NC23CC4CC(CC(C4)C2)C3)CCN(C)C1.Cl", "note": "[Compound 8e, N-(Adamantan-1-yl)-2-(2,8-dimethyl-3,4-dihydro-1H-pyrido[4,3-b]indol-5(2H)-yl)acetamide hydrochloride]", "values": [{"measurement": "Ki", "setting": "[1]", "value": "72.7 ± 6.6", "unit": "µM"}, {"measurement": "IC50", "setting": "equine serum BChE", "value": "43.2 ± 2.9", "unit": "µM"}, {"measurement": "Rate of Tb+MAP Polymerization (dA355/dt)", "setting": "[2]", "value": "133 ± 28", "unit": "%"}, {"measurement": "Ki", "setting": "[3]", "value": "105 ± 10", "unit": "µM"}, {"measurement": "inhibition at 20 µM", "setting": "porcine liver CES", "value": "9.9 ± 1.5", "unit": "%"}, {"measurement": "% of Displacement of Propidium Iodide from the PAS of EeAChE", "setting": "PAS of EeAChE", "value": "1.2 ± 0.1", "unit": "%"}, {"measurement": "Rate of Ca2+-Induced Mitochondrial Swelling (dA620/dt)", "setting": "[4]", "value": "49 ± 12", "unit": "%"}, {"measurement": "inhibition at 20 µM", "setting": "human erythrocyte AChE", "value": "13.5 ± 0.9", "unit": "%"}]}, {"smiles": "CN1CCc2c(c3ccccc3n2CCNC23CC4CC(CC(C4)C2)C3)C1.Cl.Cl", "note": "[Compound 4d, N-(2-(2-Methyl-3,4-dihydro-1H-pyrido[4,3-b]indol-5(2H)-yl)ethyl)adamantane-1-amine dihydrochloride]", "values": [{"measurement": "Ki", "setting": "[1]", "value": "3.3 ± 0.3", "unit": "µM"}, {"measurement": "IC50", "setting": "equine serum BChE", "value": "2.48 ± 0.22", "unit": "µM"}, {"measurement": "Rate of Tb+MAP Polymerization (dA355/dt)", "setting": "[2]", "value": "162 ± 19", "unit": "%"}, {"measurement": "Ki", "setting": "[3]", "value": "4.4 ± 0.3", "unit": "µM"}, {"measurement": "inhibition at 20 µM", "setting": "porcine liver CES", "value": "2.9 ± 0.8", "unit": "%"}, {"measurement": "% of Displacement of Propidium Iodide from the PAS of EeAChE", "setting": "PAS of EeAChE", "value": "10.1 ± 0.9", "unit": "%"}, {"measurement": "Rate of Ca2+-Induced Mitochondrial Swelling (dA620/dt)", "setting": "[4]", "value": "35 ± 13", "unit": "%"}, {"measurement": "IC50", "setting": "human erythrocyte AChE", "value": "112 ± 5", "unit": "µM"}]}]}
